The results in this text go back to ChEMBL document CHEMBL1201862, “PubChem BioAssay data set” (2004).

For assay [1], the target named is Beta-galactosidase (Escherichia coli, UniProt Q8VNN2). The assay is described as follows: PubChem AID 485352. Type of assay: functional.
Assay [2] is described as follows: CCR5-tropic HIV-1 fusion blockers – cell-based, CCR5-tropic Env, dose response (AID 2279). Type of assay: functional.
For assay [3], the target named is Type-1 angiotensin II receptor (Homo sapiens, UniProt P30556). Briefly: antagonism of angiotensin II type 1 receptor – cell-based, uHTS hits, selectivity assay for APJ receptor antagonist project, dose response (AID 463214).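 Note: antagonist potency against angiotensin II stimulated AT1 response.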 The class given is functional.
Chain of Type-1 angiotensin II receptor (P30556 whole entry): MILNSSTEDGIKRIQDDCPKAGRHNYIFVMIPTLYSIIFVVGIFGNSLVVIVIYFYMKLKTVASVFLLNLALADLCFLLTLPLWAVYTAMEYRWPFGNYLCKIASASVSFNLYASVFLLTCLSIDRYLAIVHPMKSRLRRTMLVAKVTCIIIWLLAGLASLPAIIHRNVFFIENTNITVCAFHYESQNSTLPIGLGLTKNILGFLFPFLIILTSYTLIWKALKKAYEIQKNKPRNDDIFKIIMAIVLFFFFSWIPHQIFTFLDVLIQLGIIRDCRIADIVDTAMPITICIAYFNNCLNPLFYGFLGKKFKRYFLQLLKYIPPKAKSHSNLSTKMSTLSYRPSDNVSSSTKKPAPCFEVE
Assay [4] has as its target T1, Heat shock factor protein 1 (Mus musculus, UniProt P38532).
T1 sequence (P38532 whole entry): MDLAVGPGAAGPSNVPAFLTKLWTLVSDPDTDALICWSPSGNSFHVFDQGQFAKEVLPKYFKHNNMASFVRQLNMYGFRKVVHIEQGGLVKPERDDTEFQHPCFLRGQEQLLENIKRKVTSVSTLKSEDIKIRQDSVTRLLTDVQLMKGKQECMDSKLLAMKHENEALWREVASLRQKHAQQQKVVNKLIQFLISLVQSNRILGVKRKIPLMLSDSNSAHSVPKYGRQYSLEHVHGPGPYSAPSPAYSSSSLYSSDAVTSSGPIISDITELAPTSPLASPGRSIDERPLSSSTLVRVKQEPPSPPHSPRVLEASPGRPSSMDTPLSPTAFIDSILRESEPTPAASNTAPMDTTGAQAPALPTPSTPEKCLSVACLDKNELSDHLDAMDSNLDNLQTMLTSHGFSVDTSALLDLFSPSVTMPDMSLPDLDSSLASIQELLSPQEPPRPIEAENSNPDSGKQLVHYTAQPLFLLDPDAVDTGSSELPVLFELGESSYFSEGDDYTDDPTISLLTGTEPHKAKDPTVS
Briefly: decrease of HSF1-responsive luciferase luminescence – cell-based, NIH3T3, dose retest, confirmation (AID 2382).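 Note: NIH3T3 fibroblasts with HSF1-driven luciferase reporter stressed by proteasome inhibitor MG132; luminescence from HSF1-driven luciferase expression after 8 hours of MG132 stress.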 The class given is functional.

The target in assay [5] is Exodeoxyribonuclease V (Escherichia coli (strain K12), UniProt P04993+P07648+P08394). Briefly: RecBCD inhibition via phage-restricted bacterial growth – absorbance, V66 E. coli, mutant T4 phage, counter-screen for AddAB inhibitor project, dose response (AID 492957). The class given is functional, cell-based, Escherichia coli str. K-12 substr. MG1655. In general terms: Counterscreens check selectivity or assay interference.
Chain of Exodeoxyribonuclease V (P04993 whole entry): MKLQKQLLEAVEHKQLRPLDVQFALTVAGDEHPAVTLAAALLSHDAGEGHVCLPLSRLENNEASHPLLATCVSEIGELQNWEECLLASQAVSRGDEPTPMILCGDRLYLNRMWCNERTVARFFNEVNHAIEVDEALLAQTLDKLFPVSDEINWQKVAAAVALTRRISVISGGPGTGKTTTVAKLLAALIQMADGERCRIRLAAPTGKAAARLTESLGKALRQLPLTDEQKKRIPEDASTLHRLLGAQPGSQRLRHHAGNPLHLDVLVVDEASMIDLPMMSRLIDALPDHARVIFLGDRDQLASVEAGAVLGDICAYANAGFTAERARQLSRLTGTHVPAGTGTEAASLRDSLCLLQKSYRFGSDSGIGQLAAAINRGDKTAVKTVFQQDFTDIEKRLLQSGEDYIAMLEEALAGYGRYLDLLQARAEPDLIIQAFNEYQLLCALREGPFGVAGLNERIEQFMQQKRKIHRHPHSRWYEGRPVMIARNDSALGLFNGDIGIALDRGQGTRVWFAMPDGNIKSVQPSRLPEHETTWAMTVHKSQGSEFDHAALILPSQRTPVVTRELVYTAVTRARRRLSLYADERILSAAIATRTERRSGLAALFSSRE
Chain of Exodeoxyribonuclease V (P07648 whole entry): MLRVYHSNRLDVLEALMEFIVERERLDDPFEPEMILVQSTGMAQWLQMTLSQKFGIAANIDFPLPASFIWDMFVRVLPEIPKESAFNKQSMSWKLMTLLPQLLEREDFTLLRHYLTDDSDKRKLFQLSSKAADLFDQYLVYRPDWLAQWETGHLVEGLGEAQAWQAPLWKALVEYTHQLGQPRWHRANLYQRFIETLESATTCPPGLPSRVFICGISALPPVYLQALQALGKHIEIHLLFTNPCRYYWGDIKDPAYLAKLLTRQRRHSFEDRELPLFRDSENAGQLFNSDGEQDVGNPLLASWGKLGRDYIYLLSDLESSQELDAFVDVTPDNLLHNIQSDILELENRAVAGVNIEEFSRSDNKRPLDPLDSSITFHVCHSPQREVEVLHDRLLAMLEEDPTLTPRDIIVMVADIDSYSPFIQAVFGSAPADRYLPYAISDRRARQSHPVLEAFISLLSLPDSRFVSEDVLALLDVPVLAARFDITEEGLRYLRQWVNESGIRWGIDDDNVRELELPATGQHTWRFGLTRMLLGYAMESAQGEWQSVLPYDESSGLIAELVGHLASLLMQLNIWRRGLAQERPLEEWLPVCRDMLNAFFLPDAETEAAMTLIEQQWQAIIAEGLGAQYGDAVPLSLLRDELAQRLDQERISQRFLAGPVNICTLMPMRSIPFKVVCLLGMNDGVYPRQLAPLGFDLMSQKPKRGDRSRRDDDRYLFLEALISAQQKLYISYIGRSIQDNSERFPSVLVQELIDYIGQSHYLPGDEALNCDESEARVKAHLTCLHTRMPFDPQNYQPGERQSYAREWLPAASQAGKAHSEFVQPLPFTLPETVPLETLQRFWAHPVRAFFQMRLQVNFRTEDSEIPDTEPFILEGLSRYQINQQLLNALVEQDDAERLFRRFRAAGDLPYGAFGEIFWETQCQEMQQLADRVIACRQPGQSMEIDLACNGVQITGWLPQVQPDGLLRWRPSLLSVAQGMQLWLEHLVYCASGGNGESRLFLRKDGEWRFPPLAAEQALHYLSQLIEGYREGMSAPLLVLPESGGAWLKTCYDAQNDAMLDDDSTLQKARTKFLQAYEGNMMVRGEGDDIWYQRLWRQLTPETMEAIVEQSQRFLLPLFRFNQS
Chain of Exodeoxyribonuclease V (P08394 whole entry): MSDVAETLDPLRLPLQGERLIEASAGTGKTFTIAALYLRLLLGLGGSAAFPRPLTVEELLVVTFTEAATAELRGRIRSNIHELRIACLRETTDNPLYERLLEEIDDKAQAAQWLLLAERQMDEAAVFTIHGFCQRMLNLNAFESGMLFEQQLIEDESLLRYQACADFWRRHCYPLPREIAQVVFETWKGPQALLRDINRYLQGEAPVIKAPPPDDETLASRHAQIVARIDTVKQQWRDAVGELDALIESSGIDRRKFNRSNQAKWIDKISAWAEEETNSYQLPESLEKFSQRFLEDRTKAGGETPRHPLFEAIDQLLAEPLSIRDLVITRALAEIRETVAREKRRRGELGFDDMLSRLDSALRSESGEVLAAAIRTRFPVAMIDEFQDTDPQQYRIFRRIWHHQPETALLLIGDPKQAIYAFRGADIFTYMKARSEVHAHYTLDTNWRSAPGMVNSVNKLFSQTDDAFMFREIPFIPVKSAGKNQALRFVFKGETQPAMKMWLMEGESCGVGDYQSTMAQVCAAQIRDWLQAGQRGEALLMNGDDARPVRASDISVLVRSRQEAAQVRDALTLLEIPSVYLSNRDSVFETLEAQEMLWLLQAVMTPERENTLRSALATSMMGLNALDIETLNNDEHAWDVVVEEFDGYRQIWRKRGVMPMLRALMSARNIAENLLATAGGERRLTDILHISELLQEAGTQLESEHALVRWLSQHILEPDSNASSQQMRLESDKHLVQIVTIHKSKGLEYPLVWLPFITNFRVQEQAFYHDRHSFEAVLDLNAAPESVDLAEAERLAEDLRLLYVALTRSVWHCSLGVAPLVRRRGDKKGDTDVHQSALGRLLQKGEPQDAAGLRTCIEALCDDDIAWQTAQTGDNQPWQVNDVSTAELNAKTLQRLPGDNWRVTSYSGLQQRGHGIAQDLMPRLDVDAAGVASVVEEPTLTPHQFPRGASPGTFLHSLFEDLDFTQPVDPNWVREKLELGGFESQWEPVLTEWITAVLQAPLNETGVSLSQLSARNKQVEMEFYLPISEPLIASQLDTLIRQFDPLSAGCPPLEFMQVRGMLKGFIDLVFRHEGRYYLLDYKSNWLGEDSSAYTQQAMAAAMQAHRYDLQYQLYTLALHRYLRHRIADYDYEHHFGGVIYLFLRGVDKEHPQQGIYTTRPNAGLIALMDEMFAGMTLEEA

A short description of assay [6]: HEK-293T viability loss after treatment – luminescence, T-cell screen hits, cytotoxicity control for TCR NF-kB inhibitor project, dose response (AID 489026).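 Note: cells exposed to compound about 14 hours before the viability readout.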 The class given is functional, cell-based.
Assay [7] is described as follows: Counterscreen for AddAB inhibitors: absorbance-based bacterial cell-based high throughput dose response assay for inhibitors of bacterial viability. [Related pubchem assays (depositor defined):AID435030, AID449728, AID449731, AID488942, AID488955, AID488956]. The class given is functional.
The target of assay [8] is Luciferin 4-monooxygenase (Photuris pensylvanica, UniProt Q27757). The assay is described as follows: inhibition of Cell Titer Glo luciferase signal – biochemical, luminescence, cherry-picks, counter-screen for HSF-1 reporter inhibitor project, dose response (AID 588847).
The subject of assay [9] is Vero. The assay is described as follows: cells. Type of assay: functional. Conditions: Chlorocebus sabaeus.
For assay [10], the target named is Paired box protein Pax-8 (Homo sapiens, UniProt Q06710). The assay is described as follows: PAX8 transcriptional activity inhibition in RMG-I – RMG-I cells, luciferase, cherry-pick, dose response (AID 687027).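 Note: luciferase reporter driven by Pax8 target thyroperoxidase promoter measured by SteadyGlo luminescence.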 The class given is functional, cell-based.
Chain of Paired box protein Pax-8 (Q06710 whole entry): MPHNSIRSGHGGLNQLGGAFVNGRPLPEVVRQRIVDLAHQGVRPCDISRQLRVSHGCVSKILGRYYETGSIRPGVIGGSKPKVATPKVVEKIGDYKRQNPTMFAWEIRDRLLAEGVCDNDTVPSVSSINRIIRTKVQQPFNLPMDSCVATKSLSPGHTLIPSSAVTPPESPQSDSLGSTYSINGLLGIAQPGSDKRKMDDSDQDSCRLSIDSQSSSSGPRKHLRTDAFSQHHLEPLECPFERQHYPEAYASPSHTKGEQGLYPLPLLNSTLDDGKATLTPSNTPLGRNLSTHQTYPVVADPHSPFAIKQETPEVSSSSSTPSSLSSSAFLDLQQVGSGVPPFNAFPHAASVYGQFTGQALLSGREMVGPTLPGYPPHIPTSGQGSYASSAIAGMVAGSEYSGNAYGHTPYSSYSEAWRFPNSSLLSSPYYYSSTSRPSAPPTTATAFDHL
A short description of assay [11]: A549 cell cytotoxicity, dose response, cytotoxicity control, plate reader, cherry-pick, antagonist series (AID 743412). The class given is functional, cell-based.
Assay [12] is described as follows: toxicity toward HepG2 liver cells – cell-based, plate reader, cherry-pick, antagonist series, cytotoxicity control, dose response (AID 743416). The class given is functional.
The nature of assay [13]: blockers of bursicon-stimulated LGR2 cAMP reporter – cell-based, HEK293, CRE-luciferase reporter, cherry pick, set 2, dose response (AID 743343).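 Note: transfected cells were stimulated with diluted bursicon conditioned medium after compound addition.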 Type of assay: functional. A general note: In a reporter assay the amount or activity of a reporter protein is the signal.
Assay [14] is described as follows: general cell-killing toxicity readout – plate reader, dry powder samples, cytotoxicity control for PAX8 inhibitor project, dose response (AID 743021). The class given is functional, cell-based.
A short description of assay [15]: blockade of melanocortin 4 receptor signaling – cell-based, plate reader, cherry pick, counter-screen for LGR2 antagonist project, dose response (AID 743444).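 Note: transfected HEK 293 cells stimulated with alpha-MSH peptide; potency of inhibitors of the alpha-MSH evoked signal.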 The class given is functional.
Assay [16] can be described thus: viability loss in HEK293 cells – cell-based, plate reader, cherry-picked samples, cytotoxicity control, dose response (AID 743446). Type of assay: functional.
A short description of assay [17]: Trypanosoma cruzi growth suppression in host cells – NIH3T3 host cells, beta-gal luminescence, confirmation (AID 2044).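 Note: intracellular parasites grown in NIH/3T3 mouse fibroblasts as host cells; luminescent beta-galactosidase reporter signal from transgenic T. cruzi replicating inside host cells; inhibitors lower the luminescence signal.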 The class given is functional, cell-based.
The nature of assay [18]: Luminescence-based dose response cell-based high throughput screening assay for cytotoxic compounds using the IEC-6 intestinal epithelial cell line. [Related pubchem assays: 1858 (Summary AID.), 1825 (Counterscreen.), 1907 (Confirmation screen.)]. Type of assay: functional.
Assay [19] addresses T2, Calpain-2 catalytic subunit (Sus scrofa, UniProt P43367).
T2 sequence (P43367 whole entry): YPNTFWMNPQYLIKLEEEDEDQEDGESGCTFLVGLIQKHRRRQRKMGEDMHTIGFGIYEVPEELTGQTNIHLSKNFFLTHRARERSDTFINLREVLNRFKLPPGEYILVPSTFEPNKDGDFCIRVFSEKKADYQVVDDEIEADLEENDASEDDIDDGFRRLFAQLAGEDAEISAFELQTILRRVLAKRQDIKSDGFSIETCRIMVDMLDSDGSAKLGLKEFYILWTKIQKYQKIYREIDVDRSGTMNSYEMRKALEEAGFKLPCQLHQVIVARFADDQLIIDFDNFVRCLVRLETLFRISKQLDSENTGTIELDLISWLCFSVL
The assay is described as follows: m-calpain protease blockers, concentration series – biochemical, fluorogenic peptide substrate, dose response (AID 1420). The class given is functional.

Assay [20] is described as follows: NIH3T3 cell viability loss – ATP luminescence, mouse fibroblasts, counter-screen, dose response (AID 2010).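 Note: cells exposed to compound for about 90 hours before reading.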 The class given is functional, cell-based.
Assay [21] deals with Microphthalmia-associated transcription factor (Homo sapiens, UniProt O75030). Briefly: reducers of TRPM1 reporter luminescence, concentration series – cell-based, SK-MEL-5, cherry-picked, set 3, MITF inhibitor project, dose response (AID 493073).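 Note: SK-MEL-5 melanoma cells with luciferase driven by the MITF target TRPM1 promoter.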 Type of assay: functional.
The target of assay [22] is T3, Apoptotic protease-activating factor 1 (Homo sapiens, UniProt O14727).
T3 sequence (O14727 whole entry): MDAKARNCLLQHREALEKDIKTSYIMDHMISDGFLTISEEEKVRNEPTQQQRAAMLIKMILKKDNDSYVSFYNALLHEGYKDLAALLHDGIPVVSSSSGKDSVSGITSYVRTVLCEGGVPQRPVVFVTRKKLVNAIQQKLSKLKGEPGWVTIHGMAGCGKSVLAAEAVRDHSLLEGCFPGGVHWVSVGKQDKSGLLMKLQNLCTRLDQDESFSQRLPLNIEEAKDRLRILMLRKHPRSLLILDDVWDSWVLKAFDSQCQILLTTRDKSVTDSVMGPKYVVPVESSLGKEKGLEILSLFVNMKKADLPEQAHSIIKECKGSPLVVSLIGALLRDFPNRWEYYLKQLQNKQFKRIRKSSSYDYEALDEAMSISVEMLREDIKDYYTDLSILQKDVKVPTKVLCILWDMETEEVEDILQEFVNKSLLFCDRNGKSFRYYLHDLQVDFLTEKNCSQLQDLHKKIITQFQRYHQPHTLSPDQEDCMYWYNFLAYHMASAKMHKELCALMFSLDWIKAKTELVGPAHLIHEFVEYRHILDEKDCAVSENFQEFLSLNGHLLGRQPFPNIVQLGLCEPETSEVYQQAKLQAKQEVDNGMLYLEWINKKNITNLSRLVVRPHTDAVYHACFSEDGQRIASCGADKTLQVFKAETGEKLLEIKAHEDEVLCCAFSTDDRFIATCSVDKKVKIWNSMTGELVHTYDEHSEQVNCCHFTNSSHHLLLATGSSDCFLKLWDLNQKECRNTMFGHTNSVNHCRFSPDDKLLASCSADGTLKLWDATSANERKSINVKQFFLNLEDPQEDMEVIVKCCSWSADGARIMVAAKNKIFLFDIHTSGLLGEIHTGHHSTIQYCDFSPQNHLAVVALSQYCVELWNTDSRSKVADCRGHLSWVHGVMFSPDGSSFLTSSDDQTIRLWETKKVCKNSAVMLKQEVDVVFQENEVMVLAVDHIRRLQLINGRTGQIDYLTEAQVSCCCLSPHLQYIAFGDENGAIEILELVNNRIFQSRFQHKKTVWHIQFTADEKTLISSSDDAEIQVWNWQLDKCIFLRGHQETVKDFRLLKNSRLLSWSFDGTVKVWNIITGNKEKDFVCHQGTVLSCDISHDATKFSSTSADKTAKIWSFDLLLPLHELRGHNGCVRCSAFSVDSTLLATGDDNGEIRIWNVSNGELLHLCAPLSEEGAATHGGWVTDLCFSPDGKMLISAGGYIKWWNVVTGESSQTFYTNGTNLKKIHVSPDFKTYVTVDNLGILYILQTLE
Type of assay: functional.

In assay [23] the test system is INS1. The assay is described as follows: INS-1E survival protection against cytokine death – cell-based, luminescence, retest, dose response (AID 449756).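 Note: cell death triggered by IL-1 beta plus TNF-alpha plus IFN-gamma mixture; protective hits raise ATP signal compared with cytokine alone wells.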 The class given is functional. The following applies: Rattus norvegicus.
The test system of assay [24] is A-375. Briefly: proliferation inhibition in MITF-low A375 cells – cell-based, cherry-pick samples, set 2, counter-screen for MITF modulator project, dose response (AID 540335). The class given is functional. Conditions: Homo sapiens.
Assay [25] has as its target T4, Histone-lysine N-methyltransferase NSD2 (Homo sapiens, UniProt O96028).
T4 sequence (O96028 whole entry): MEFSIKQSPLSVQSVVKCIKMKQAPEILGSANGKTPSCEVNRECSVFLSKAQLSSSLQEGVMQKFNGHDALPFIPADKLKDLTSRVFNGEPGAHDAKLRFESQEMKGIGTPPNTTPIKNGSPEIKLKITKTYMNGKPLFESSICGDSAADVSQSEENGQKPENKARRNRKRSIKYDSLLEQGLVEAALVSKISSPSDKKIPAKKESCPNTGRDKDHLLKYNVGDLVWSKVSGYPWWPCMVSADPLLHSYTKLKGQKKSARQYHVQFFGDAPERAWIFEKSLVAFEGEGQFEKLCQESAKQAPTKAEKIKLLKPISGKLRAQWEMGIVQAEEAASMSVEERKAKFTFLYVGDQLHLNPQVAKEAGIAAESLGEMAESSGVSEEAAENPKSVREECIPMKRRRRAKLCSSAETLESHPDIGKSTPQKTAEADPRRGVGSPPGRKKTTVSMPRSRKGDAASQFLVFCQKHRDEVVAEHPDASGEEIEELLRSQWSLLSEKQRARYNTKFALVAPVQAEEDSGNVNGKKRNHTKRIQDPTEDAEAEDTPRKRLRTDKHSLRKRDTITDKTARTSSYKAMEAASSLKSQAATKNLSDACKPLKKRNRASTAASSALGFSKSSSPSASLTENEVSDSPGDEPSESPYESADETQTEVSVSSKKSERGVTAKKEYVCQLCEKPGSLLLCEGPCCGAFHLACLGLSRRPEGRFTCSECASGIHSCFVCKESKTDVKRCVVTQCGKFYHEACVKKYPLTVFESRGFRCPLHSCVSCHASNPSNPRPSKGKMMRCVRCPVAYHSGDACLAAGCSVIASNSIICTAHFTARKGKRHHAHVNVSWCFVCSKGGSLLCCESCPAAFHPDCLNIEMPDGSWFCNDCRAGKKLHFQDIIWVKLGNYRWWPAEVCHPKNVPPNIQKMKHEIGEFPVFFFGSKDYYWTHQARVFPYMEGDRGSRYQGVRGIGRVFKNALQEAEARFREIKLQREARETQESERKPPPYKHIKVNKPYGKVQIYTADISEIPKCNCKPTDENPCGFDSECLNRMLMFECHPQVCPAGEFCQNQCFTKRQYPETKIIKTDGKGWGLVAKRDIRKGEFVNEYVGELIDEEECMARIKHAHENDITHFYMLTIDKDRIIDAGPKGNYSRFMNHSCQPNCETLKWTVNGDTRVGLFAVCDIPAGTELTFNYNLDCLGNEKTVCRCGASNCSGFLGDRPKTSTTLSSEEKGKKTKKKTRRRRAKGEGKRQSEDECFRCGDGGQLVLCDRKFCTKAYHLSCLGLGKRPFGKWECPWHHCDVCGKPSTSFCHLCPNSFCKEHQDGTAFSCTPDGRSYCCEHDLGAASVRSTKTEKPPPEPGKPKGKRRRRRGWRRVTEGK
Type of assay: biochemical.

Active and inactive are the calls of the source.

Chain of Beta-galactosidase (Q8VNN2 whole entry, the tested form may be a part): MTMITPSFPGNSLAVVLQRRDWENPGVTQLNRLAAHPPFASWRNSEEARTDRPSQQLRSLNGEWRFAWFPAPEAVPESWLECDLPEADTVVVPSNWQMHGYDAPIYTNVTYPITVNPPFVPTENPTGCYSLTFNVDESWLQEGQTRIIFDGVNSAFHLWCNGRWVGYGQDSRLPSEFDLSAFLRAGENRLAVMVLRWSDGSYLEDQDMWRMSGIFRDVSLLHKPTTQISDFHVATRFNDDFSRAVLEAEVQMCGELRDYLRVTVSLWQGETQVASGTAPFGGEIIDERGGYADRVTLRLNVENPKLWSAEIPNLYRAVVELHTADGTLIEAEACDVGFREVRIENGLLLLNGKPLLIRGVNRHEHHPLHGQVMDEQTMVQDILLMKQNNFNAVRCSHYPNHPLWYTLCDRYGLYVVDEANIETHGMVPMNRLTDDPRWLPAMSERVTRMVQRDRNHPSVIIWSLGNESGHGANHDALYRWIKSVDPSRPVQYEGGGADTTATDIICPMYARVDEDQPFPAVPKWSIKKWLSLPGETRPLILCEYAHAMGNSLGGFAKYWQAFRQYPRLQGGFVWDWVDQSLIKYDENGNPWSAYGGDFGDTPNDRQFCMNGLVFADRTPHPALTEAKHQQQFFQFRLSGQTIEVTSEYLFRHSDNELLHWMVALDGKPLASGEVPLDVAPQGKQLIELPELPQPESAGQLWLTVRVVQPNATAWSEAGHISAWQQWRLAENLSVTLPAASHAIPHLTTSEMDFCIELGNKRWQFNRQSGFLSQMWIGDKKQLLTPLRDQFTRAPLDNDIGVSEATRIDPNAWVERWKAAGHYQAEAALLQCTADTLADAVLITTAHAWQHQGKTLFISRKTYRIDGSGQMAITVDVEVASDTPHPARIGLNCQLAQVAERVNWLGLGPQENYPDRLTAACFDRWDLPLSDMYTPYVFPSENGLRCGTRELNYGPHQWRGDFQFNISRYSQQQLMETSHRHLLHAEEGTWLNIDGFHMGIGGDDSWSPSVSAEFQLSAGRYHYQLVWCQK

For the compound `O=C(O)c1ccccc1N=Nc1c(O)[nH]c2ccc([N+](=O)[O-])cc12`, in assay [1], the EC50 (commonly the concentration needed to bring the measured effect to its halfway point) is > 40 µM (inactive). Further, the half-maximal inhibitory concentration (IC50) (commonly the concentration that gives 50% inhibition) in assay [2] was 10.1 µM (active); in [3] it was > 40 µM (not active).
`C(=N\Nc1nc2ccccc2s1)/c1ccccn1`: the EC50 in assay [4] was < 0.16 µM (active). The IC50 was > 119 µM (inactive) in assay [5], > 80 µM (inactive) in assay [6] and > 119 µM (inactive) in [7]. In addition, the AC50 (as a rule, the concentration at which the activity in the assay is half-maximal) in [8] was 0.836 µM (active); in assay [10], 3.32 µM (active); in assay [11], 2.02 µM (active); in assay [12], 2.06 µM (active); in assay [13], 0.148 µM (active); in [14], 9.34 µM (active). In addition, the AC50 in assay [15] is 0.229 µM (active); in assay [16] it was 3.72 µM (active). In addition, the CC50 (commonly the concentration that lowers cell viability or growth by half) in assay [9] was 2.61 µM (active).
As to `CCN(CC)CCCNC1=C(Cl)C(=O)c2ccccc2C1=O`, the EC50 in assay [17] is 0.987 µM (active); in assay [20] it was 2.26 µM (active). For the same compound, the IC50 in [18] was 1.8 µM (active); in assay [19], 9.5 µM (not active); in assay [22] it was 11.7 µM (active). The AC50 is 1.78 µM (active) in [21], 2.46 µM (active) in assay [23], 14.8 µM (active) in assay [24] and 4.69 µM (active) in assay [25].
